Experimental findings from patent publication US20250345453A1, “CHEMOTHERAPEUTIC MICELLULAR NANOPARTICLES” (Peptinovo Biopharma Inc., priority 2024, published 2025) are described below.

One series concerns SK-OV-3 cells. Briefly: Growth inhibition of SK-OV-3 cells, MTT assay after 72 hr. The series is classed as cell-based, human. The following applies: conjugates delivered in C-m-HDLs, SEQ ID NO: 35 peptide, solvent lyophilization, FIG. 12A. As for the experimental part: In this Example, the mole portions of components in the C-m-HDLs prepared by solvent lyophilization were POPC: egg SM: peptide: conjugate 5.6:2.4:2:1. 20 mM stock solutions of POPC and of egg SM were prepared in tert-butyl alcohol: water (8:2 v/v). […] Conjugates 20 and 30 were separately dissolved in tert-butyl alcohol: water (95:5) to a final concentration of 10 mM.
For C-m-HDL preparation, 2.8 mL of 20 mM POPC, 1.2 mL of 20 mM egg SM, 2 mL of 10 mM peptide, 1 mL of 10 mM conjugate, and 0.3 mL acetic acid were combined in a 20 mL glass vial. The combined solution was frozen at ≥−70° C. for ≥1 hr. The frozen vial was placed in the chamber of a lyophilizer set at a shelf temperature of −20° C. A vacuum between 100 to 150 mTorr was applied for ≥20 hr. The shelf temperature was raised to −10° C. and the vacuum was continued for ≥15 hr. The shelf temperature was then raised to 20° C. and the vacuum continued for 24 hr. The dried cake was dissolved in PBS to obtain C-m-HDLs. The uniformity of the C-m-HDLs was evaluated by SEC (Acclaim™ SEC-1000, 300 mm×4.6 mm column, 0.3 mL/min PBS mobile phase, 210 nm and 280 nm UV detection) and by dynamic light scattering. The phospholipid content was established with a commercially available, enzyme-based, colorimetric assay kit. Peptide and conjugate content were established by HPLC.
Two C-m-HDLs were prepared as above, containing either Conjugate 20 or Conjugate 30 were then tested for their growth inhibition activity against SK-OV-3 cells (ATCC). SK-OV-3 cells were grown in McCoy's-5A media supplemented with 10% fetal bovine serum and maintained in a 37° C. incubator under a 5% CO2 atmosphere. To assess growth inhibition, the growth medium of cells grown in 96-well plates was supplemented with various concentrations of C-m-HDL (cmpd 20), C-m-HDL (compd 30) or paclitaxel from a DMSO stock solution. The 96-well plates were incubated for 72 hr. The relative amount of live cells in each of the wells after 72 hr was determined with the MTT assay. […]

Series [1] deals with female Sprague-Dawley rats. Put plainly: Adrenal gland functionality after dosing: plasma corticosterone after ACTH challenge. The series is classed as in vivo, rat. The following applies: paclitaxel in Cremophor EL/ethanol, 4 mg/kg intraperitoneally Days 1, 4, 7; FIG. 10. As for the experimental part:
A paclitaxel stock solution was prepared by dissolving paclitaxel in 1:1 (v/v) Cremophor EL/ethanol (95%) to a final paclitaxel concentration of […] (C-E paclitaxel solution). Next, a paclitaxel solution suitable for dosing was prepared by combining one volume of the C-E paclitaxel solution with 3 volumes of 0.9 weight % NaCl. This solution is designated as “Control”.
C-m-HDL (cmpd 20) was prepared as per Example 12.
Eighteen (18) female Sprague-Dawley rats were randomly assigned to 3 groups of 6 animals each. All animals were lightly anesthetized using isoflurane and dosed intraperitoneally on Days 1, 4, and 7 with paclitaxel at 4 mg/kg in a dose volume of 1.5 mL/kg, or intravenously with C-m-HDL (cmpd 20) at 4 mg/kg or vehicle (saline) via the tail vein using a dose volume of 1.5 mL/kg. Group I received saline, Group 2 received paclitaxel, and Group 3 received C-m-HDL (cmpd 20). On Day 11, rats in each group were lightly anesthetized using isoflurane within their home cage to minimize potential stress responses. Blood (˜200 μL) was collected into K3EDTA tubes prior to ACTH challenge (baseline). Rats were then challenged with a single intraperitoneal injection of ACTH (ACTH 1-24, Sigma-Aldrich A0298-1922) in normal saline at […] in a dose volume of 2 mL/kg. […] Plasma corticosterone content was determined with a commercially available ELISA kit.

With `CC(=O)O[C@H]1C(=O)[C@@]2(C)[C@H]([C@H](OC(=O)c3ccccc3)[C@]3(O)C[C@H](OC(=O)[C@H](OC(=O)Oc4cc(C)c5c(c4)CC[C@@](C)(CC/C=C(\C)CC/C=C(\C)CCC=C(C)C)O5)[C@@H](NC(=O)c4ccccc4)c4ccccc4)C(C)=C1C3(C)C)[C@]1(OC(C)=O)CO[C@@H]1C[C@@H]2O` [Conjugate 20, paclitaxel-delta-tocotrienol conjugate], the “SK-OV-3 growth inhibition activity, delta-tocotrienol versus delta-tocopherol anchor” value in the series on SK-OV-3 cells was “equivalent results”; in the series with SK-OV-3 cells (listed as paclitaxel-delta-tocotrienol) it was “essentially equivalent”. Take “Paclitaxel-δ-tocopherol conjugate with a cleavable carbonate bond [No. 82]”: the “SK-OV-3 growth inhibition activity, delta-tocotrienol versus delta-tocopherol anchor” value in the series on SK-OV-3 cells (listed as paclitaxel-delta-tocopherol) is reported as “essentially equivalent”; in the series on SK-OV-3 cells (listed as δ-tocopherol-paclitaxel), “equivalent results”.

As for `CC(=O)O[C@H]1C(=O)[C@@]2(C)[C@H]([C@H](OC(=O)c3ccccc3)[C@]3(O)C[C@H](OC(=O)[C@H](O)[C@@H](NC(=O)c4ccccc4)c4ccccc4)C(C)=C1C3(C)C)[C@]1(OC(C)=O)CO[C@@H]1C[C@@H]2O` [paclitaxel], the “adrenal toxicity (plasma corticosterone after ACTH challenge)” value in series [1] is on record as “lack of adrenal toxicity”.
